Results reported in patent US20070043327A1, “Drug delivery device comprising a mesh sleeve” (priority 2003, published 2007).

Assays:
[1] = clinical study: circulating plasma concentrations of mefenamic acid after intravaginal devices; assay type: in vivo; settings: human volunteers, intravaginal tampon with directly attached coupons
Description: The purpose of the device described here is to administer mefenamic acid via the intravaginal route. In one clinical study, intravaginal devices, using the direct process of attachment of coupons to tampons were prepared to cGMP (Good Manufacturing Procedure); devices were prepared containing 20, 40 or 80 mg per tampon.
These were administered to human volunteers in a study conforming to Good Clinical Procedure and circulating plasma concentrations of mefenamic acid were determined after drawing blood samples.

[2] = release of mefenamic acid from intravaginal devices into water; assay type: physicochemical; settings: 100 ml water, stirred gently, six devices
Excerpt: The final intra-vaginal devices, namely coupons fixed directly to tampons or coupons fixed to tampons via the sleeve were then compared for their ability to release an active pharmaceutical, in this case mefenamic acid, when placed in an aqueous environment. This enabled functional ‘equivalence’ of the devices to be confirmed. Intravaginal devices constructed by the direct application of coupons to tampons were compared to intravaginal devices constructed using the mesh sleeve. Devices were placed in beakers containing 100 ml water and stirred gently for varying periods of time. The fluid phase was removed brought to a […] with sodium hydroxide and the concentration of mefenamic determined by spectrophotometry.

[3] = 20 mg mefenamic acid per tampon
[4] = 40 mg mefenamic acid per tampon
[5] = 80 mg mefenamic acid per tampon

For `Cc1cccc(Nc2ccccc2C(=O)O)c1C` [mefenamic acid, 2-[2,3-Dimethylphenylamino] benzoid acid], the “Accumulated dose (0-7)” value [1, 3] was 44.7, the Max. plasma conc. [1, 3] was 4.23 ng/mL and the “Accumulated dose (0-7)” value [1, 4] was 197. For the same compound, the Max. plasma conc. [1, 4] was 14.9 ng/mL, the “Accumulated dose (0-7)” value [1, 5] was 257 and the Max. plasma conc. [1, 5] was 19.5 ng/mL. For the same compound, the “mefenamic acid recovered in the aqueous phase (mean)” value ([2]; devices with coupons attached via the mesh sleeve, 80 mg per sleeve) was 73.7 mg and the “mefenamic acid recovered in the aqueous phase (mean)” value ([2]; devices with coupons directly attached to tampons, 80 mg per tampon) was 72.8 mg.
